Laboratory results: ChEMBL document CHEMBL1909046, “DrugMatrix in vitro pharmacology data”

Experiments:
[1] = DRUGMATRIX: beta-Lactamase enzyme inhibition (substrate: Nitrocefin); parameters: species or system Bacillus cereus; settings: Not Active = under 50% inhibition at 10 µM
[2] = DRUGMATRIX: Serotonin (5-Hydroxytryptamine) 5-HT3 radioligand binding (ligand: [3H] GR-65630); type: cell membranes, Membrane; settings: hek293; Not Active = under 50% inhibition at 10 µM
Substance-P receptor = Substance-P receptor (Homo sapiens, UniProt P25103); type: cell membranes, CHO, Membrane; settings: cho; note: in other assays of this panel Not Active means under 50% inhibition at 10 µM
Substance-P receptor, sequence (P25103 whole entry): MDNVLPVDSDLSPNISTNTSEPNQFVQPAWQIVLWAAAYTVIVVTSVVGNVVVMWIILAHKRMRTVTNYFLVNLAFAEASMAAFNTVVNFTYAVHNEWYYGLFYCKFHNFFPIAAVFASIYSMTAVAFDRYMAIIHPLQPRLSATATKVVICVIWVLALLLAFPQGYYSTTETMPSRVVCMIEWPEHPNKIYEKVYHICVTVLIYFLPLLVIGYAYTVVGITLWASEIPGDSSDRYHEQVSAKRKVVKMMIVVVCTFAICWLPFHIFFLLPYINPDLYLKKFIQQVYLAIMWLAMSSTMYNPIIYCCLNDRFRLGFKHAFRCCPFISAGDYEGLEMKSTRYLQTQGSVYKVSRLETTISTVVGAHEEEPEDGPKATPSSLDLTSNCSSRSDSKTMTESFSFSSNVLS

Endothelin-1 receptor = biological target: T1, Endothelin-1 receptor (Homo sapiens, UniProt P25101); type: cell membranes, CHO-K1, Membrane; settings: cho-k1; note: in other assays of this panel Not Active means under 50% inhibition at 10 µM
T1 sequence (P25101 whole entry): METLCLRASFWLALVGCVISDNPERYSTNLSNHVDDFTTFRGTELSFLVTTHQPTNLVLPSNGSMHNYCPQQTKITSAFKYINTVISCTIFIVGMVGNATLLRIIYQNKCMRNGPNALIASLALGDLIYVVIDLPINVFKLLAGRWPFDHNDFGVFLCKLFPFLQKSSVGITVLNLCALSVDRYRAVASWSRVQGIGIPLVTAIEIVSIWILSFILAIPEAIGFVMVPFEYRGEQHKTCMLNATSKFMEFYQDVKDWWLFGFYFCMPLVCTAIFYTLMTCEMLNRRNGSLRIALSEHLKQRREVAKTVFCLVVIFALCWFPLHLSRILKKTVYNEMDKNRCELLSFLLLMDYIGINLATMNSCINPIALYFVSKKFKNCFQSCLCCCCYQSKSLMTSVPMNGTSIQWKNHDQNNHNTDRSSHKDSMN

[3] = DRUGMATRIX: GABAA, Flunitrazepam, Central radioligand binding (ligand: [3H] Flunitrazepam); type: cell membranes, Rattus norvegicus, Wistar, Brain, Membrane; settings: Not Active = under 50% inhibition at 10 µM
[4] = biological target: T2, Muscarinic acetylcholine receptor M2 (Homo sapiens, UniProt P08172); type: cell membranes, CHO-K1, Membrane; note: in other assays of this panel Not Active means under 50% inhibition at 10 µM
T2 sequence (P08172 whole entry): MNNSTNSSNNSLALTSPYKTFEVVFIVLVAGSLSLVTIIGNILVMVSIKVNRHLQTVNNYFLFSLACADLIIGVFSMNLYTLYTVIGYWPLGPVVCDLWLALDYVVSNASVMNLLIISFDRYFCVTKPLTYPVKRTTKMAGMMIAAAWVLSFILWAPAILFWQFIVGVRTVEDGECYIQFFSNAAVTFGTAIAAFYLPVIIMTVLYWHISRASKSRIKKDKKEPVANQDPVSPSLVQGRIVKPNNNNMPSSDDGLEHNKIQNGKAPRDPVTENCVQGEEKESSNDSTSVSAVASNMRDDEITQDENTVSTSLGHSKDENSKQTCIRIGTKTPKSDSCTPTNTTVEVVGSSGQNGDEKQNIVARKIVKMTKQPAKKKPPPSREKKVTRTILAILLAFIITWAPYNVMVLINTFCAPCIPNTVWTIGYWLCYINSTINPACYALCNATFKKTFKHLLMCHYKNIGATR

Acetylcholinesterase = Acetylcholinesterase (Homo sapiens, UniProt P22303); test: DRUGMATRIX: Acetylcholinesterase enzyme inhibition (substrate: acetylthiocholine); type: cell-based, HEK293; settings: hek293; Not Active = under 50% inhibition at 10 µM
Acetylcholinesterase, sequence (P22303 whole entry): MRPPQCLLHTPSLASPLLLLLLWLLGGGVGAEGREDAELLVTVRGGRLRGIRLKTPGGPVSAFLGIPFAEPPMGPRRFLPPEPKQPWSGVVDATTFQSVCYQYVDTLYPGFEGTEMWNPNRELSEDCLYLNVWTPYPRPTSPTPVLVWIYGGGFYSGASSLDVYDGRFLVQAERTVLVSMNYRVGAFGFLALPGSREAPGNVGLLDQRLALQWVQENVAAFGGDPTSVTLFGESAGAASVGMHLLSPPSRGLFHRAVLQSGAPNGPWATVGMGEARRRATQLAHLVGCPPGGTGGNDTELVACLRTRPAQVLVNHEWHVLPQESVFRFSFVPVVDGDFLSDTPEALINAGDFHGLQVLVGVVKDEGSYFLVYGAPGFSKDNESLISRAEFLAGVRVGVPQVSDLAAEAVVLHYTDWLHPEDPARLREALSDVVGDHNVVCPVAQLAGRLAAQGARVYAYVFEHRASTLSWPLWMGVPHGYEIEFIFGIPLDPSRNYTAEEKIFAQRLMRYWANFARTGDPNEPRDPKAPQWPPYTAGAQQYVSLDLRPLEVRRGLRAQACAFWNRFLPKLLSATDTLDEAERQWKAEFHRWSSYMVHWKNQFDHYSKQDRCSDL

Nc1nc2c(ncn2CCC(CO)CO)c(=O)[nH]1 [PENCICLOVIR]
Not Active: IC50 [1] | Ki [1] | IC50 [2] | Ki [2] | IC50 (Substance-P receptor) | IC50 (Endothelin-1 receptor) | IC50 [3] | Ki [3] | IC50 ([4]; cho-k1) | IC50 (Acetylcholinesterase)

C=C(C)C1(O)OC(=O)C=C1OC (configuration not stated) [PENICILLIC ACID]
Not Active: IC50 [1] | Ki [1] | IC50 [2] | Ki [2] | IC50 (Substance-P receptor) | IC50 (Endothelin-1 receptor) | IC50 [3] | Ki [3] | IC50 ([4]; cho-k1) | IC50 (Acetylcholinesterase)

CC1(C)S[C@@H]2[C@H](NC(=O)Cc3ccccc3)C(=O)N2[C@H]1C(=O)O [PENICILLIN G]
Not Active: IC50 [1] | Ki [1] | IC50 [2] | Ki [2] | IC50 (Substance-P receptor) | IC50 (Endothelin-1 receptor) | IC50 [3] | Ki [3] | IC50 ([4]; cho-k1) | IC50 (Acetylcholinesterase)

CCCN1C[C@H](CSC)C[C@@H]2c3cccc4[nH]cc(c34)C[C@H]21 [PERGOLIDE]
Not Active: IC50 [1] | Ki [1] | IC50 [2] | Ki [2] | IC50 (Substance-P receptor) | IC50 (Endothelin-1 receptor) | IC50 [3] | Ki [3] | IC50 ([4]; cho-k1) | IC50 (Acetylcholinesterase)

C1CCC(C(CC2CCCCN2)C2CCCCC2)CC1 (configuration not stated) [PERHEXILINE]
Not Active: IC50 [1] | Ki [1] | IC50 [2] | Ki [2] | IC50 (Substance-P receptor) | IC50 (Endothelin-1 receptor) | IC50 [3] | Ki [3] | IC50 ([4]; cho-k1) | IC50 (Acetylcholinesterase)

CCOc1ccc(NC(C)=O)cc1 [PHENACETIN]
Not Active: IC50 [1] | Ki [1] | IC50 [2] | Ki [2] | IC50 (Substance-P receptor) | IC50 (Endothelin-1 receptor) | IC50 [3] | Ki [3] | IC50 ([4]; cho-k1) | IC50 (Acetylcholinesterase)

Cc1ccc(N(CC2=NCCN2)c2cccc(O)c2)cc1 [PHENTOLAMINE]
Not Active: IC50 [1] | Ki [1] | IC50 [2] | Ki [2] | IC50 (Substance-P receptor) | IC50 (Endothelin-1 receptor) | IC50 [3] | Ki [3] | IC50 ([4]; cho-k1) | IC50 (Acetylcholinesterase)

CNNCc1ccc(C(=O)NC(C)C)cc1 [PROCARBAZINE]
Not Active: IC50 [1] | Ki [1] | IC50 [2] | Ki [2] | IC50 (Substance-P receptor) | IC50 (Endothelin-1 receptor) | IC50 [3] | Ki [3] | IC50 ([4]; cho-k1) | IC50 (Acetylcholinesterase)

CN(C)CCCN1c2ccccc2Sc2ccccc21 [PROMAZINE]
1090 nM: IC50 ([4]; read-out: IC50)
Not Active: IC50 [1] | Ki [1] | IC50 [2] | Ki [2] | IC50 (Substance-P receptor) | IC50 (Endothelin-1 receptor) | IC50 [3] | Ki [3] | IC50 (Acetylcholinesterase)
387 nM: Ki ([4]; read-out: Ki)

CC(O)CO (configuration not stated) [PROPYLENE GLYCOL]
Not Active: IC50 [1] | Ki [1] | IC50 [2] | Ki [2] | IC50 (Substance-P receptor) | IC50 (Endothelin-1 receptor) | IC50 [3] | Ki [3] | IC50 ([4]; cho-k1) | IC50 (Acetylcholinesterase)

CADMIUM ACETATE
Not Active: IC50 [1] | Ki [1] | IC50 [2] | Ki [2] | IC50 (Substance-P receptor) | Ki (Substance-P receptor) | IC50 (Endothelin-1 receptor) | Ki (Endothelin-1 receptor) | IC50 [3] | Ki [3] | IC50 ([4]; cho-k1) | Ki ([4]; cho-k1) | IC50 (Acetylcholinesterase) | Ki (Acetylcholinesterase)

LEAD (II) ACETATE
Not Active: IC50 [1] | Ki [1] | IC50 [2] | Ki [2] | IC50 (Substance-P receptor) | Ki (Substance-P receptor) | IC50 (Endothelin-1 receptor) | Ki (Endothelin-1 receptor) | IC50 [3] | Ki [3] | IC50 ([4]; cho-k1) | Ki ([4]; cho-k1) | IC50 (Acetylcholinesterase) | Ki (Acetylcholinesterase)

LIPOPOLYSACCHARIDE E. COLI O55:B5
38.7 nM: IC50 ([1]; read-out: IC50)
Not Active: IC50 [2] | Ki [2] | IC50 (Substance-P receptor) | Ki (Substance-P receptor) | IC50 (Endothelin-1 receptor) | Ki (Endothelin-1 receptor) | IC50 [3] | Ki [3] | IC50 ([4]; cho-k1) | Ki ([4]; cho-k1) | IC50 (Acetylcholinesterase) | Ki (Acetylcholinesterase)
